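Where inhibition never reached the appropriate level, the endpoint shown equals the highest concentration tested. Otherwise, values were interpolated linearly from a five-concentration, 48-hour dose response in 96-well plates. GI50: concentration for 50% inhibition of growth.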 Activity calls are given as the source filed them. Cut-off read from the data, not from the text of the source: active = GI50 up to about 1.1 µM and inactive = higher.
Columns and labels:
Experiment in all cases: NCI-60 cell line screen, 48 h
[1] = system: UACC-257
[2] = system: DMS-273
[3] = system: HT-29
[4] = system: OVCAR-8
[5] = system: SN12C
[6] = system: DLD-1
[7] = system: ACHN
[8] = system: OVCAR-4
[9] = system: HCT-15
[10] = system: M14
[11] = system: MOLT-4
[12] = system: NCI/ADR-RES
[13] = system: NCI-H460
[14] = system: NCI-H522
[15] = system: SNB-19
[16] = system: A549
[17] = system: SK-MEL-5
[18] = system: OVCAR-5
[19] = system: U-251
[20] = system: IGROV-1
[21] = system: K562
[22] = system: HOP-62
[23] = system: CCRF-CEM
[24] = system: DMS-114
[25] = system: LXFL 529
[26] = system: SK-MEL-28
[27] = system: UO-31
[28] = system: SF-295
[29] = system: HOP-18
[30] = system: SNB-75
[31] = system: EKVX
[32] = system: RPMI-8226
[33] = system: XF498
[34] = system: SF-268
[35] = system: UACC-62
[36] = system: SR
[37] = system: HOP-92
[38] = system: KM12
[39] = system: RXF 393
[40] = system: 786-0
[41] = system: HCT-116
[42] = system: SF-539
[43] = system: OVCAR-3
[44] = system: NCI-H23
[45] = system: CAKI-1
[46] = system: COLO 205
[47] = system: SK-OV-3
[48] = system: LOX IMVI
[49] = system: SK-MEL-2
[50] = system: Malme-3M
[51] = system: TK-10
[52] = system: A498
[53] = system: KM-20L2
[54] = system: NCI-H226
[55] = system: M19-MEL
[56] = system: HCC 2998
[57] = system: SNB-78
[58] = system: SW-620
[59] = system: HL-60
[60] = system: RXF 631

C[n+]1ccc(Nc2ccc(NC(=O)c3ccc(Nc4cc[n+](C)c5ccc([N+](=O)[O-])cc45)cc3[N+](=O)[O-])cc2)cc1
GI50 [1]: 23.6 µM (inactive) | GI50 [2]: 27.2 µM (inactive) | GI50 [3]: > 100 µM (inactive) | GI50 [4]: 22.8 µM (inactive) | GI50 [5]: 48.8 µM (inactive) | GI50 [6]: > 86.7 µM (inactive) | GI50 [7]: > 100 µM (inactive) | GI50 [8]: 34.5 µM (inactive) | GI50 [9]: 61.2 µM | GI50 [10]: 63.4 µM (inactive) | GI50 [11]: 35.3 µM (inactive) | GI50 [12]: > 52.4 µM (inactive) | GI50 [13]: 23.7 µM (inactive) | GI50 [14]: 13.8 µM (inactive) | GI50 [15]: > 59.2 µM (inactive) | GI50 [16]: 22 µM (inactive) | GI50 [17]: 23.3 µM (inactive) | GI50 [18]: > 100 µM (inactive) | GI50 [19]: 21.7 µM (inactive) | GI50 [20]: > 100 µM (inactive) | GI50 [21]: 20.8 µM (inactive) | GI50 [22]: 47.1 µM (inactive) | GI50 [23]: 33.2 µM (inactive) | GI50 [24]: 0.692 µM (active) | GI50 [25]: 15.8 µM (inactive) | GI50 [26]: 28.4 µM (inactive) | GI50 [27]: 47.6 µM (inactive) | GI50 [28]: 27.8 µM (inactive) | GI50 [29]: 20.5 µM (inactive) | GI50 [30]: > 60.1 µM (inactive) | GI50 [31]: 47.6 µM (inactive) | GI50 [32]: 13.3 µM (inactive) | GI50 [33]: 33.5 µM (inactive) | GI50 [34]: 30.9 µM (inactive) | GI50 [35]: 31.3 µM (inactive) | GI50 [36]: > 100 µM (inactive) | GI50 [37]: 26.9 µM (inactive) | GI50 [38]: 47.8 µM (inactive) | GI50 [39]: > 83.8 µM (inactive) | GI50 [40]: 27.4 µM (inactive) | GI50 [41]: 30.5 µM (inactive) | GI50 [42]: 27 µM (inactive) | GI50 [43]: 17.8 µM (inactive) | GI50 [44]: 29.7 µM (inactive) | GI50 [45]: > 73.1 µM (inactive) | GI50 [46]: 22.5 µM (inactive) | GI50 [47]: 57.8 µM (inactive) | GI50 [48]: > 39.7 µM (inactive) | GI50 [49]: 50.1 µM (inactive) | GI50 [50]: 19.5 µM (inactive) | GI50 [51]: > 100 µM (inactive) | GI50 [52]: 64 µM (inactive) | GI50 [53]: > 100 µM (inactive) | GI50 [54]: 50.4 µM (inactive) | GI50 [55]: 18.3 µM (inactive)

CCCCCCCCCCCCSC(=S)c1c(C)[nH]n(CCCCCCCCCCCC)c1=O
GI50 [1]: > 100 µM (inactive) | GI50 [3]: 74.1 µM (inactive) | GI50 [4]: 91.2 µM (inactive) | GI50 [5]: 77.1 µM (inactive) | GI50 [6]: > 100 µM (inactive) | GI50 [7]: 55.2 µM (inactive) | GI50 [8]: > 100 µM (inactive) | GI50 [9]: 65.3 µM | GI50 [10]: > 10 µM (inactive) | GI50 [11]: > 100 µM (inactive) | GI50 [56]: > 100 µM (inactive) | GI50 [13]: 50.5 µM (inactive) | GI50 [14]: 99.5 µM (inactive) | GI50 [15]: > 100 µM (inactive) | GI50 [16]: 40.5 µM (inactive) | GI50 [17]: > 100 µM (inactive) | GI50 [18]: > 100 µM (inactive) | GI50 [19]: > 100 µM (inactive) | GI50 [20]: > 100 µM (inactive) | GI50 [21]: > 100 µM (inactive) | GI50 [22]: > 100 µM (inactive) | GI50 [23]: 48.4 µM (inactive) | GI50 [24]: 46.1 µM (inactive) | GI50 [25]: 67.9 µM (inactive) | GI50 [26]: > 100 µM (inactive) | GI50 [27]: 88.1 µM (inactive) | GI50 [28]: > 100 µM (inactive) | GI50 [29]: 65 µM (inactive) | GI50 [30]: > 100 µM (inactive) | GI50 [31]: 27.5 µM (inactive) | GI50 [57]: > 100 µM (inactive) | GI50 [32]: 94.8 µM (inactive) | GI50 [34]: 48.9 µM (inactive) | GI50 [35]: > 100 µM (inactive) | GI50 [36]: > 100 µM (inactive) | GI50 [38]: > 100 µM (inactive) | GI50 [41]: 43.6 µM (inactive) | GI50 [42]: > 100 µM (inactive) | GI50 [43]: > 100 µM (inactive) | GI50 [44]: > 100 µM (inactive) | GI50 [45]: > 100 µM (inactive) | GI50 [46]: > 100 µM (inactive) | GI50 [47]: > 100 µM (inactive) | GI50 [48]: > 100 µM (inactive) | GI50 [58]: 77.6 µM (inactive) | GI50 [49]: 78.2 µM (inactive) | GI50 [50]: 34.6 µM (inactive) | GI50 [59]: 66.7 µM (inactive) | GI50 [52]: > 100 µM (inactive) | GI50 [60]: > 100 µM (inactive) | GI50 [53]: 73.1 µM (inactive) | GI50 [54]: > 100 µM (inactive) | GI50 [55]: 31.6 µM (inactive)

O=C1NC2OC(CO)C(O)C(O1)C2O (stereo not drawn)
GI50 [1]: > 100 µM (inactive) | GI50 [2]: > 100 µM (inactive) | GI50 [3]: > 100 µM (inactive) | GI50 [4]: > 100 µM (inactive) | GI50 [5]: > 100 µM (inactive) | GI50 [6]: > 100 µM (inactive) | GI50 [7]: > 100 µM (inactive) | GI50 [8]: > 100 µM (inactive) | GI50 [9]: > 100 µM | GI50 [10]: > 100 µM (inactive) | GI50 [11]: > 100 µM (inactive) | GI50 [13]: > 100 µM (inactive) | GI50 [14]: > 100 µM (inactive) | GI50 [15]: > 100 µM (inactive) | GI50 [17]: > 100 µM (inactive) | GI50 [18]: > 100 µM (inactive) | GI50 [19]: > 100 µM (inactive) | GI50 [20]: > 100 µM (inactive) | GI50 [21]: > 100 µM (inactive) | GI50 [22]: > 100 µM (inactive) | GI50 [23]: > 100 µM (inactive) | GI50 [24]: > 100 µM (inactive) | GI50 [25]: > 100 µM (inactive) | GI50 [26]: > 100 µM (inactive) | GI50 [27]: > 100 µM (inactive) | GI50 [28]: > 100 µM (inactive) | GI50 [29]: > 100 µM (inactive) | GI50 [30]: > 100 µM (inactive) | GI50 [31]: > 100 µM (inactive) | GI50 [57]: > 100 µM (inactive) | GI50 [32]: > 100 µM (inactive) | GI50 [33]: > 100 µM (inactive) | GI50 [34]: > 100 µM (inactive) | GI50 [35]: > 100 µM (inactive) | GI50 [36]: > 100 µM (inactive) | GI50 [37]: > 100 µM (inactive) | GI50 [38]: > 100 µM (inactive) | GI50 [39]: > 100 µM (inactive) | GI50 [40]: > 100 µM (inactive) | GI50 [42]: > 100 µM (inactive) | GI50 [43]: > 100 µM (inactive) | GI50 [44]: > 100 µM (inactive) | GI50 [45]: > 100 µM (inactive) | GI50 [46]: > 100 µM (inactive) | GI50 [47]: > 100 µM (inactive) | GI50 [48]: > 100 µM (inactive) | GI50 [58]: > 100 µM (inactive) | GI50 [49]: > 100 µM (inactive) | GI50 [50]: > 100 µM (inactive) | GI50 [59]: > 100 µM (inactive) | GI50 [51]: > 100 µM (inactive) | GI50 [52]: > 100 µM (inactive) | GI50 [53]: > 100 µM (inactive) | GI50 [54]: > 100 µM (inactive) | GI50 [55]: > 100 µM (inactive)

— ChEMBL document CHEMBL1201862, “PubChem BioAssay data set” (2004)
